Experimental data: PMC4613811 (Lung cancer (Amsterdam, Netherlands), 2015)
Like-named read-outs stand apart in the source and are kept apart here.

Columns and labels:
[1] = assay type: in vivo, human
[2] = Plasma pharmacokinetics of dovitinib, phase I trial; assay type: in vivo; settings: human, oral
FMO3 = settings: in vitro; cited from earlier work
CYP3A4 = settings: in vitro; cited from earlier work
CYP1A2 = settings: caffeine as CYP1A2 substrate; cited from earlier work
[3] = previous studies with dovitinib; cited from earlier work
[4] = cited from earlier work
[5] = test system: NSCLC with EGFR activating mutations; settings: cited from earlier work
[6] = cited from earlier work; remark: listed apart in the source
[7] = healthy volunteers, 150 mg dose, cited from earlier work
[8] = NSCLC patients who currently smoke; cited from earlier work
[9] = co-administered strong CYP3A4 inducer rifampin; cited from earlier work
[10] = post-dovitinib relative to pre-dovitinib

## C#Cc1cccc(Nc2ncnc3cc(OCCOC)c(OCCO)cc23)c1 [OSI-420]
[1]; Erlotinib alone (E), Day 14 ± 4, normalized to erlotinib 150 mg dose, mean ± SD
  AUC0–24h: 5381 ± 2982 ng·h/mL
[1]; [10]
  AUC0–24h geometric mean ratio (D + E:E), mean: 0.06
  Cmax geometric mean ratio (D + E:E), mean: 0.17

## CN1CCN(c2ccc3nc(-c4c(N)c5c(F)cccc5[nH]c4=O)[nH]c3c2)CC1 [Dovitinib]
[2]
  Tmax: 6 h
  half-life: 32 ± 19 h
FMO3
  share of metabolism by FMO3: 65–83%
CYP3A4
  share of metabolism by CYP3A4: 17–35%
CYP1A2
  reduction of the AUC of caffeine: 96%
[3]
  decreased appetite, regardless of grade: 37.0%
  diarrhea, regardless of grade: 68%
  fatigue, regardless of grade: 40.5%
  nausea, regardless of grade: 66.7%
  vomiting, regardless of grade: 60.6%
[4]
  effect of food on bioavailability: food does not alter the bioavailability

## C#Cc1cccc(Nc2ncnc3cc(OCCOC)c(OCCOC)cc23)c1 [Erlotinib]
[1]; human, plasma, oral, 150 mg
  AUC(0-t): 41000 ng·h/mL
  half-life: 50 ± 53 h
[1]; p < 0.01, six patients
  decrease in AUC0–24 during dovitinib co-administration: 97%
[1]; p = 0.02, six patients
  decrease in Cmax during dovitinib co-administration: 93%
[1]; [10]
  AUC0–24h geometric mean ratio (D + E:E), mean: 0.03
  Cmax geometric mean ratio (D + E:E), mean: 0.07
  T1/2, terminal geometric mean ratio (D + E:E), mean: 0.10
[5]; NSCLC patients with EGFR activating mutations
  time to development of resistance in the majority of patients: less than 1 year
[5]; NSCLC patients with known EGFR activating mutations
  response rates (RRs): 60–70%
[6]
  median half-life: 36.2 h
[7]; non-smokers
  AUC: 18,726 ng × h/mL
[7]; nonsmokers
  Cmax: 1056 ng/mL
[7]; smokers vs non-smokers
  decrease in AUC in smokers: 64%
[7]; smokers vs nonsmokers
  decrease in Cmax in smokers: 35%
[7]; smokers
  AUC: 6718 ng·h/mL
  Cmax: 689 ng/mL
[8]
  steady-state trough concentration, fold lower compared to non-smokers: 2 fold
[9]
  decrease in AUC with rifampin: 66%
  decrease in Cmax with rifampin: 29%
